Experimental data: patent US10597388B2, “Pyridazinone herbicides” (FMC CORPORATION, priority 2014, dated 2020)

How the values were obtained:
Experiment in all cases: Test C greenhouse herbicide test, pre- and postemergence
Assay type in all cases: in vivo
[1] = tested on: oilseed rape (Brassica napus)
Summary of the method: (§1)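 Greenhouse pots; pre-em on seeded loam:sand blend, post-em on 2–18 cm plants (1–4 leaf) in sphagnum peat/vermiculite medium. Formulation: non-phytotoxic solvent + surfactant. Read-out: visual % control (0–100) vs controls at 13–15 d.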

[2] = tested on: morningglory (Ipomoea coccinea)
Summary of the method: as §1

[3] = tested on: velvetleaf (Abutilon theophrasti)
Summary of the method: as §1

[4] = tested on: lambsquarters (Chenopodium album)
Summary of the method: as §1

[5] = tested on: ryegrass, Italian (Italian ryegrass, Lolium multiflorum)
Summary of the method: as §1

[6] = tested on: blackgrass (Alopecurus myosuroides)
Summary of the method: as §1

[7] = tested on: nutsedge, yellow (yellow nutsedge, Cyperus esculentus)
Summary of the method: as §1

[8] = tested on: johnsongrass (Sorghum halepense)
Summary of the method: as §1

[9] = tested on: pigweed (Amaranthus retroflexus)
Summary of the method: as §1

[10] = tested on: foxtail, giant (giant foxtail, Setaria faberii)
Summary of the method: as §1

[11] = tested on: ragweed (common ragweed, Ambrosia elatior)
Summary of the method: as §1

[12] = tested on: crabgrass, large (large crabgrass, Digitaria sanguinalis)
Summary of the method: as §1

[13] = tested on: barnyardgrass (Echinochloa crus-galli)
Summary of the method: as §1

[14] = tested on: galium (catchweed bedstraw, Galium aparine)
Summary of the method: as §1

[15] = tested on: waterhemp (common waterhemp, Amaranthus rudis)
Summary of the method: as §1

[16] = tested on: corn (Zea mays)
Summary of the method: as §1

[17] = Postemergence, 31 g ai/ha, scale 0 to 100 (0 no effect, 100 complete control)
[18] = Postemergence, 125 g ai/ha, scale 0 to 100, 0 is no effect, 100 is complete control
[19] = Postemergence, 250 g ai/ha, scale 0 to 100, 0 no effect, 100 complete control, 13 to 15 d
[20] = postemergence, 62 g ai/ha, scale 0 to 100, 0 no effect, 100 complete control
[21] = Postemergence, 62 g ai/ha, 0 to 100 scale (0 no effect, 100 complete control)
[22] = postemergence, 125 g ai/ha, scale 0 to 100, 0 no effect, 100 complete control

`Cc1nn(C)c(=O)c(-c2cc(F)cc3ccccc23)c1OS(C)(=O)=O` [Compound 115] was tested, and the “Plant response rating, Oilseed Rape” value [1, 17] was 0, the “Plant response rating, Oilseed Rape” value [1, 18] was 0 and the “Plant response rating, Oilseed Rape” value [1, 19] was 0. The “Plant response rating, Morningglory” value [2, 17] was 55, the “Plant response rating, Morningglory” value [2, 18] was 95 and the “Plant response rating, Morningglory” value [2, 19] was 100. The “Plant response rating, Velvetleaf” value [3, 17] was 15, the “Plant response rating, Velvetleaf” value [3, 18] was 70 and the “Plant response rating, Velvetleaf” value [3, 19] was 65. For the same compound, the “Plant response rating, Lambsquarters” value [4, 17] was 70, the “Plant response rating, Lambsquarters” value [4, 18] was 90 and the “Plant response rating, Lambsquarters” value [4, 19] was 98. The “Plant response rating, Ryegrass, Italian” value [5, 17] was 90, the “Plant response rating, Ryegrass, Italian” value [5, 18] was 95 and the “Plant response rating, Ryegrass, Italian” value [5, 19] was 95. For the same compound, the “Plant response rating, Blackgrass” value [6, 17] was 0, the “Plant response rating, Blackgrass” value [6, 18] was 20 and the “Plant response rating, Blackgrass” value [6, 19] was 35. For the same compound, the “Blackgrass plant response rating” value [6, 20] was 10, the “Plant response rating, Nutsedge, Yellow” value [7, 17] was 40 and the “Plant response rating, Nutsedge, Yellow” value [7, 18] was 65. For the same compound, the “Plant response rating, Nutsedge, Yellow” value [7, 19] was 80, the “Plant response rating, Johnsongrass” value [8, 17] was 5 and the “Plant response rating, Johnsongrass” value [8, 18] was 10. The “Plant response rating, Johnsongrass” value [8, 19] was 20, the “Plant response rating, Pigweed” value [9, 17] was 30 and the “Plant response rating, Pigweed” value [9, 18] was 70. For the same compound, the “Plant response rating, Pigweed” value [9, 19] was 90, the “Plant response rating, Foxtail, Giant” value [10, 17] was 5 and the “Plant response rating, Foxtail, Giant” value [10, 18] was 20. For the same compound, the “Plant response rating, Foxtail, Giant” value [10, 19] was 35, the “Plant response rating, Ragweed” value [11, 17] was 60 and the “Plant response rating, Ragweed” value [11, 18] was 95. The “Plant response rating, Ragweed” value [11, 19] was 98, the “Plant response rating, Crabgrass, Large” value [12, 17] was 10 and the “Plant response rating, Crabgrass, Large” value [12, 18] was 20. For the same compound, the “Plant response rating, Crabgrass, Large” value [12, 19] was 25, the “Crabgrass, Large plant response rating” value [12, 20] was 20 and the “Plant response rating, Barnyardgrass” value [13, 17] was 10. For the same compound, the “Plant response rating, Barnyardgrass” value [13, 18] was 35, the “Plant response rating, Barnyardgrass” value [13, 19] was 45 and the “Barnyardgrass plant response rating” value [13, 20] was 20. For the same compound, the “Plant response rating, Galium” value [14, 17] was 85, the “Plant response rating, Galium” value [14, 18] was 95 and the “Plant response rating, Galium” value [14, 19] was 95. For the same compound, the “Plant response rating, Waterhemp” value [15, 17] was 65, the “Plant response rating, Waterhemp” value [15, 18] was 90 and the “Plant response rating, Waterhemp” value [15, 19] was 90. For the same compound, the “Plant response rating, Corn” value [16, 17] was 5, the “Plant response rating, Corn” value [16, 18] was 5 and the “Plant response rating, Corn” value [16, 19] was 15. The “Corn plant response rating” value [16, 20] was 5.

With `COC(=O)Oc1c(C)nn(C)c(=O)c1-c1c([N+](=O)[O-])ccc2ccccc12` [Compound 162] the “Plant response rating, Oilseed Rape” value [1, 17] was 0, the “Oilseed Rape plant response rating” value [1, 21] was 0 and the “Plant response rating, Oilseed Rape” value [1, 19] was 0. For the same compound, the “Oilseed Rape plant response rating” value [1, 22] was 0, the “Plant response rating, Morningglory” value [2, 17] was 60 and the “Morningglory plant response rating” value [2, 21] was 85. The “Plant response rating, Morningglory” value [2, 19] was 90, the “Morningglory plant response rating” value [2, 22] was 85 and the “Plant response rating, Velvetleaf” value [3, 17] was 5. For the same compound, the “Velvetleaf plant response rating” value [3, 21] was 15, the “Plant response rating, Velvetleaf” value [3, 19] was 70 and the “Velvetleaf plant response rating” value [3, 22] was 30. The “Plant response rating, Lambsquarters” value [4, 17] was 85, the “Lambsquarters plant response rating” value [4, 21] was 95 and the “Plant response rating, Lambsquarters” value [4, 19] was 95. For the same compound, the “Lambsquarters plant response rating” value [4, 22] was 90, the “Plant response rating, Ryegrass, Italian” value [5, 17] was 60 and the “Ryegrass, Italian plant response rating” value [5, 21] was 70. The “Plant response rating, Ryegrass, Italian” value [5, 19] was 80, the “Ryegrass, Italian plant response rating” value [5, 22] was 70 and the “Plant response rating, Blackgrass” value [6, 17] was 10. The “Blackgrass plant response rating” value [6, 21] was 15, the “Plant response rating, Blackgrass” value [6, 19] was 40 and the “Blackgrass plant response rating” value [6, 22] was 30. The “Plant response rating, Nutsedge, Yellow” value [7, 17] was 20, the “Nutsedge, Yellow plant response rating” value [7, 21] was 25 and the “Plant response rating, Nutsedge, Yellow” value [7, 19] was 30. For the same compound, the “Nutsedge, Yellow plant response rating” value [7, 22] was 30, the “Plant response rating, Johnsongrass” value [8, 17] was 5 and the “Johnsongrass plant response rating” value [8, 21] was 5. For the same compound, the “Plant response rating, Johnsongrass” value [8, 19] was 10, the “Johnsongrass plant response rating” value [8, 22] was 5 and the “Plant response rating, Pigweed” value [9, 17] was 75. The “Pigweed plant response rating” value [9, 21] was 80, the “Plant response rating, Pigweed” value [9, 19] was 90 and the “Pigweed plant response rating” value [9, 22] was 85. The “Plant response rating, Foxtail, Giant” value [10, 17] was 5, the “Foxtail, Giant plant response rating” value [10, 21] was 15 and the “Plant response rating, Foxtail, Giant” value [10, 19] was 40. The “Foxtail, Giant plant response rating” value [10, 22] was 15, the “Plant response rating, Ragweed” value [11, 17] was 70 and the “Ragweed plant response rating” value [11, 21] was 85. The “Plant response rating, Ragweed” value [11, 19] was 90, the “Ragweed plant response rating” value [11, 22] was 75 and the “Plant response rating, Crabgrass, Large” value [12, 17] was 0. For the same compound, the “Crabgrass, Large plant response rating” value [12, 21] was 5, the “Plant response rating, Crabgrass, Large” value [12, 19] was 10 and the “Crabgrass, Large plant response rating” value [12, 22] was 10. The “Plant response rating, Barnyardgrass” value [13, 17] was 10, the “Barnyardgrass plant response rating” value [13, 21] was 20 and the “Plant response rating, Barnyardgrass” value [13, 19] was 25. For the same compound, the “Barnyardgrass plant response rating” value [13, 22] was 25, the “Plant response rating, Galium” value [14, 17] was 90 and the “Galium plant response rating” value [14, 21] was 90. For the same compound, the “Plant response rating, Galium” value [14, 19] was 98, the “Galium plant response rating” value [14, 22] was 95 and the “Plant response rating, Waterhemp” value [15, 17] was 45. The “Waterhemp plant response rating” value [15, 21] was 65, the “Plant response rating, Waterhemp” value [15, 19] was 65 and the “Waterhemp plant response rating” value [15, 22] was 70. The “Plant response rating, Corn” value [16, 17] was 0, the “Corn plant response rating” value [16, 21] was 0 and the “Plant response rating, Corn” value [16, 19] was 0. For the same compound, the “Corn plant response rating” value [16, 22] was 0.
